Marks after values point to notes of the source that are not given here.
Experiments:
Type in all cases: in vivo, rat
Myocardial Mitochondria [1] = experiment: Myocardial mitochondrial glutathione antioxidant status, old male and female rats; details: liposome-encapsulated in drinking water, 10 mg/kg daily, 35 days
Procedure: (§1) Aged male and female rats (˜12 months old) were administered with liposome-encapsulated (−) Schisandrin B in drinking water for 35 days, with the daily dose estimated to be 10 mg/kg.
(§2) Male/Female adult Sprague-Dawley rats (˜12 months old) were maintained under a 12-h dark/light cycle at about 22° C. and allowed food and water ad libitum. Animals were randomly divided into groups, with at least 5 animals in each. In the pretreatment groups, rats were treated with liposome-encapsulated (−) Schisandrin B in drinking water for 35 days, with the estimated daily dose of 10 mg/kg. Control animals received empty liposomes-containing drinking water. Twenty-four hours following the last dosing, hearts were isolated from control or drug-pretreated rats and then subjected to Langendorff perfusion as described below.
(§3) Myocardial tissue samples were rinsed with ice-cold isotonic buffer (50 mM Tris, 0.32 M sucrose, 1 mM Na2EDTA, 0.2 mg/ml soybean trypsin inhibitor, 0.2 mg/ml bacitracine, 0.16 mg/ml benzamidine). Tissue homogenates were prepared by homogenizing 0.8 g of myocardial tissue in 8 ml ice-cold isotonic buffer and the homogenates were used for the preparation of mitochondrial fractions by differential centrifugation, as described in Chiu and Ko (2004). The mitochondrial pellets were resuspended in 1.5 ml of isotonic buffer containing 150 μl of 2 mg/ml soybean trypsin inhibitor and constituted the mitochondrial fractions.
(§4) Aliquots (500 μl) of mitochondrial fractions were taken for measuring mitochondrial GSH level by HPLC methods, using GSH as standards, respectively, as described (Chiu et al 2002). Aliquots (400 μl) of mitochondrial fractions were mixed with 933 μl Triton X-100 solution (0.3%, v/v, in isotonic buffer) and sonicated for 2 min on ice. The mixtures were then subjected to measurements of mitochondrial glutathione reductase (GRD), Se-glutathione peroxidase (GPX) and glutathione S-transferases (GST) activities by spectrophotometric methods, as described in Chiu et al. (2002).

Myocardial Mitochondria [2] = experiment: Myocardial mitochondrial glutathione antioxidant status, young male and female rats; details: 35 days
Procedure: Male/Female adult Sprague-Dawley rats (˜10 weeks old) were maintained under a 12-h dark/light cycle at about 22° C. and allowed food and water ad libitum. Animals were randomly divided into groups, with at least 5 animals in each. In the pretreatment groups, rats were treated intragastrically with (−) Schisandrin B at a daily dose of 1 or 10 mg/kg for 35 days. Control animals received oil only (10 ml/kg). Twenty-four hours following the last dosing, hearts were isolated from control or drug-pretreated rats and then subjected to Langendorff perfusion as described below.
as §3, §4

Myocardial Mitochondria [3] = experiment: Myocardial mitochondrial ATP generation capacity, old male and female rats; details: liposome-encapsulated in drinking water, 10 mg/kg daily, 35 days
Procedure: as §1, §2, §3
Myocardial mitochondrial ATP generation capacity was measured by incubating 200 μl of nucleus-free tissue homogenate with 200 μl of substrate solution (containing 100 mM glutamate and 34 mM malate) and 20 μl ADP (2.3 mM) for 10 min at 37° C., and the ATP level were measured using an assay kit from Sigma Chemical Co. (St. Louis, Mo., USA). LDH activity was spectrophotometrically measured as described (Yim and Ko 1999).

[4] = female rats, 1 mg/kg daily oral
[5] = female rats, 10 mg/kg daily oral

For `COc1cc2c(c(OC)c1OC)-c1c(cc3c(c1OC)OCO3)CC(C)C(C)C2` (single isomer, unassigned; (-)) [(−) Sch B, (−) Schisandrin B], the GPX (Myocardial Mitochondria [1]; old female rats (~12 months)) was 44.6 ± 4.29 mU/mg Protein, the GRD (Myocardial Mitochondria [1]; old female rats (~12 months)) was 5.65 ± 0.65 mU/mg protein and the GSH (Myocardial Mitochondria [1]; old female rats (~12 months)) was 6.80 ± 0.28^b nmol/mg protein. The GST (Myocardial Mitochondria [1]; old female rats (~12 months)) was 14.0 ± 0.45^b mU/mg protein, the “GRD, percent increase vs untreated control” value (shortened to “GRD, percent increase”) (Myocardial Mitochondria [1]; old female rats) was “(13%)” and the “GSH, percent increase vs untreated control” value (shortened to “GSH, percent increase”) (Myocardial Mitochondria [1]; old female rats) was “(31%)”. For the same compound, the GPX (Myocardial Mitochondria [1]; old male rats (~12 months)) was 52.2 ± 0.72^a mU/mg Protein, the GRD (Myocardial Mitochondria [1]; old male rats (~12 months)) was 3.72 ± 0.29^a mU/mg protein and the GSH (Myocardial Mitochondria [1]; old male rats (~12 months)) was 4.43 ± 0.09^a nmol/mg protein. For the same compound, the GST (Myocardial Mitochondria [1]; old male rats (~12 months)) was 17.5 ± 0.76 mU/mg protein, the “GPX, percent increase vs untreated control” value (shortened to “GPX, percent increase”) (Myocardial Mitochondria [1]; old male rats) was “(15%)” and the “GRD, percent increase” value (Myocardial Mitochondria [1]; old male rats) was “(39%)”. The “GSH, percent increase” value (Myocardial Mitochondria [1]; old male rats) was “(265%)”, the GPX (Myocardial Mitochondria [2]; [4]) was 73.2 ± 4.98^b mU/mg Protein and the “GPX, percent increase” value (Myocardial Mitochondria [2]; [4]) was “(43%)”. The GRD (Myocardial Mitochondria [2]; [4]) was 6.30 ± 0.37^b mU/mg protein, the “GRD, percent increase” value (Myocardial Mitochondria [2]; [4]) was “(34%)” and the GSH (Myocardial Mitochondria [2]; [4]) was 17.3 ± 1.11^b nmol/mg protein. For the same compound, the “GSH, percent increase” value (Myocardial Mitochondria [2]; [4]) was “(60%)”, the GST (Myocardial Mitochondria [2]; [4]) was 14.1 ± 0.58^b mU/mg protein and the “GST, percent increase vs untreated control” value (“GST, percent increase” for short) (Myocardial Mitochondria [2]; [4]) was “(37%)”. The GPX (Myocardial Mitochondria [2]; [5]) was 78.3 ± 2.94^b mU/mg Protein, the “GPX, percent increase” value (Myocardial Mitochondria [2]; [5]) was “(53%)” and the GRD (Myocardial Mitochondria [2]; [5]) was 8.02 ± 0.55^b mU/mg protein. The “GRD, percent increase” value (Myocardial Mitochondria [2]; [5]) was “(71%)”, the GSH (Myocardial Mitochondria [2]; [5]) was 21.6 ± 0.38^b nmol/mg protein and the “GSH, percent increase” value (Myocardial Mitochondria [2]; [5]) was “(107%)”. For the same compound, the GST (Myocardial Mitochondria [2]; [5]) was 16.9 ± 0.90^b mU/mg protein, the “GST, percent increase” value (Myocardial Mitochondria [2]; [5]) was “(63%)” and the GPX (Myocardial Mitochondria [2]; male rats, 1 mg/kg daily oral) was 77.3 ± 3.78^a mU/mg Protein. The “GPX, percent increase” value (Myocardial Mitochondria [2]; male rats, 1 mg/kg daily oral) was “(48%)”, the GRD (Myocardial Mitochondria [2]; male rats, 1 mg/kg daily oral) was 6.76 ± 0.29 mU/mg protein and the “GRD, percent increase” value (Myocardial Mitochondria [2]; male rats, 1 mg/kg daily oral) was “(26%)”. For the same compound, the GSH (Myocardial Mitochondria [2]; male rats, 1 mg/kg daily oral) was 18.1 ± 1.06^a nmol/mg protein, the “GSH, percent increase” value (Myocardial Mitochondria [2]; male rats, 1 mg/kg daily oral) was “(56%)” and the GST (Myocardial Mitochondria [2]; male rats, 1 mg/kg daily oral) was 12.8 ± 0.10 mU/mg protein. The “GST, percent increase” value (Myocardial Mitochondria [2]; male rats, 1 mg/kg daily oral) was “(65%)”, the GPX (Myocardial Mitochondria [2]; male rats, 10 mg/kg daily oral) was 83.7 ± 2.12^a mU/mg Protein and the “GPX, percent increase” value (Myocardial Mitochondria [2]; male rats, 10 mg/kg daily oral) was “(60%)”. The GRD (Myocardial Mitochondria [2]; male rats, 10 mg/kg daily oral) was 7.59 ± 0.13^a mU/mg protein, the “GRD, percent increase” value (Myocardial Mitochondria [2]; male rats, 10 mg/kg daily oral) was “(42%)” and the GSH (Myocardial Mitochondria [2]; male rats, 10 mg/kg daily oral) was 23.8 ± 1.10^a nmol/mg protein. The “GSH, percent increase” value (Myocardial Mitochondria [2]; male rats, 10 mg/kg daily oral) was “(105%)”, the GST (Myocardial Mitochondria [2]; male rats, 10 mg/kg daily oral) was 14.5 ± 0.36^a mU/mg protein and the “GST, percent increase” value (Myocardial Mitochondria [2]; male rats, 10 mg/kg daily oral) was “(83%)”. For the same compound, the “ATP generation” value (Myocardial Mitochondria [3]; old female rats (~12 months)) was 4.43 ± 0.10^b μmol/min/mg protein, the “ATP Generation, percent increase vs untreated control” value (Myocardial Mitochondria [3]; old female rats) was “(48%)” and the “ATP generation” value (Myocardial Mitochondria [3]; old male rats (~12 months)) was 3.75 ± 0.06 μmol/min/mg protein. The “ATP Generation, percent increase vs untreated control” value (Myocardial Mitochondria [3]; old male rats) was “(11%)”.
